Reference: publication PMC6705415 (Nature structural & molecular biology, 2019)
Residue numbers refer to the chain shown, from its start.

Key:
[1] = system: hENT1 Gly154 mutated to serine; conditions: Gly154 to serine mutation in hENT1 versus wild type; cited from earlier work
[2] = biological target: T1, hENT1 Met33Ile (hENT1cryst background) (Homo sapiens, UniProt Q99808, DEL243-274/L168F/M33I/N288K/P175A); assay: Cold dilazep displacement of 3H-NBMPR; format: binding; conditions: Met33Ile relative to hENT1cryst; displacement of 100 nM 3H-NBMPR
T1 sequence (Q99808 with tags, fused parts or gaps M33I/L168F/P175A/DEL243-274/N288K): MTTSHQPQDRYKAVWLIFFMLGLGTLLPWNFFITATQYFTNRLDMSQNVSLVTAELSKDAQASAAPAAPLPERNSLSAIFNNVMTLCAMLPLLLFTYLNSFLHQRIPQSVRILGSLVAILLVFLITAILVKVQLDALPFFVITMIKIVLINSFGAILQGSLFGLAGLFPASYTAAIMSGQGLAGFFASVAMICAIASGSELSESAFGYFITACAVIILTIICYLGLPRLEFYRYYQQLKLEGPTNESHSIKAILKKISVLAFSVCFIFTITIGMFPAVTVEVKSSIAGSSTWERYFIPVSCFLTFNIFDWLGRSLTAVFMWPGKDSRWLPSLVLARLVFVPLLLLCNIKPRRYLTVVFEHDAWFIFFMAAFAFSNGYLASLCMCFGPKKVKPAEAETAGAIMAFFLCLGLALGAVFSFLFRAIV

[3] = biological target: T2, hENT1 Phe307Ala (hENT1cryst background) (Homo sapiens, UniProt Q99808, DEL243-274/F307A/L168F/N288K/P175A); assay: Cold dilazep displacement of 3H-NBMPR; format: binding; conditions: Phe307Ala relative to hENT1cryst; displacement of 100 nM 3H-NBMPR
T2 sequence (Q99808 with tags, fused parts or gaps L168F/P175A/DEL243-274/N288K/F307A): T1 sequence (Q99808 with tags, fused parts or gaps M33I/L168F/P175A/DEL243-274/N288K) with I33M, F275A

[4] = biological target: T3, hENT1 Phe307Tyr (hENT1cryst background) (Homo sapiens, UniProt Q99808, DEL243-274/F307Y/L168F/N288K/P175A); assay: Cold dilazep displacement of 3H-NBMPR; format: binding; conditions: Phe307Tyr relative to hENT1cryst; displacement of 100 nM 3H-NBMPR
T3 sequence (Q99808 with tags, fused parts or gaps L168F/P175A/DEL243-274/N288K/F307Y): T1 sequence (Q99808 with tags, fused parts or gaps M33I/L168F/P175A/DEL243-274/N288K) with I33M, F275Y

increase in apparent Kd for dilazep [2] | increase in apparent Kd for dilazep [3] | decrease in apparent Kd for dilazep [4] | Compound | decrease in NBMPR inhibitory potency [1]
– | – | – | O=[N+]([O-])c1ccc(CSc2ncnc3c2ncn3[C@@H]2O[C@H](CO)[C@@H](O)[C@H]2O)cc1 [NBMPR, S-(4-Nitrobenzyl)-6-thioinosine] | ~ 2,500 fold
~ 3 fold | ~ 90 fold | ~ 4 fold | COc1cc(C(=O)OCCCN2CCCN(CCCOC(=O)c3cc(OC)c(OC)c(OC)c3)CC2)cc(OC)c1OC [dilazep] | –
